Where a SMILES comes first, the peptide text is derived from it. The star is where a group is joined. MeOSuc = COC(=O)CCC(=O)* Some results are limits rather than exact numbers.

The target in the experiment is 20S proteasome. The experiment can be described thus: Compound was evaluated for inhibitory activity against 20S proteasome from human liver and brain. Format: subcellular.
With `COC(=O)CCCCCCCC(=O)NC(CCC/N=C(\N)NS(=O)(=O)c1c(C)c(C)c2c(c1C)CCC(C)(C)O2)C(=O)NC(C=O)CC(C)C` (single isomer, unassigned), the half-maximal inhibitory concentration (IC50) is 20 nM.
To `COC(=O)CCC(=O)N[C@@H](CCC(=O)O)C(=O)N[C@H](C(=O)N[C@@H](CCCCN)C(=O)N[C@@H](Cc1ccccc1)C(=O)O)C(C)C` (MeOSuc-EVKF-OH) belongs 1000 nM; to `COC(=O)CCCCCCCC(=O)NC(CCC/N=C(\N)NS(=O)(=O)c1c(C)cc(OC)c(C)c1C)C(=O)NC(C=O)CC(C)C` (configuration not stated), 95 nM; to `COC(=O)CCCCCCCC(=O)N[C@H](CCC/N=C(\N)NS(=O)(=O)c1c(C)c(C)c2c(c1C)CCC(C)(C)O2)C(=O)NC(C=O)CC(C)C` (some centres not stated), over 3000 nM.
The result for `COC(=O)CCCCCCCC(=O)NC(CCC/N=C(\N)N[N+](=O)[O-])C(=O)NC(C=O)CC(C)C` (configuration not stated) reads 40 nM.
To `CC(C)CC(C=O)NC(=O)C(CCC/N=C(\N)N[N+](=O)[O-])NC(=O)C(CCCCCCCCN1C(=O)c2ccccc2C1=O)C1CCCC1` (configuration not stated) belongs 2 nM; to `CC(C)CC(C=O)NC(=O)C(CCC/N=C(\N)N[N+](=O)[O-])NC(=O)C(CCCCCCCCC#N)C1CCCC1` (configuration not stated), 6 nM.

A word on the IC50: it is the concentration that inhibits the measured activity by half.

These data come from ChEMBL document CHEMBL1128409, “Potent inhibitors of proteasome” (J Med Chem, 1995).
